One data set relates to Coronarthrombose. Nature of the data set: Coronary thrombosis by the method of Folts et al.: frequency of cyclic blood flow variations (CFV's) in the damaged, stenosed left descending coronary artery of anaesthetised pigs. It counts as in vivo, Hausschweinen. As for the experimental part:
Bei den tief narkotisierten Tieren wurde der Thorax eröffnet; die linke absteigende Coronararterie wurde freipräpariert und mit einem elektromagnetischen Blutströmungsmeßkopf versehen. Distal des Meßkopfes wurde das Coronargefäß durch kurzes (1 s) Quetschen mit einer Gefäßklemme geschädigt. Auf diese Stelle wurde ein Plastikkonstriktor (innerer Durchmesser 1.7 - 2.8 mm, Länge 2 mm) gesetzt, der das Gefäß stenosiert. […] Die Thromben wurden durch Bestimmung der Frequenz (Anzahl pro 60 min) der zyklischen Blutströmungsveränderungen quantifiziert. […] 0.1 mg/kg Molsidomin i.v. zusammen mit 0.1 mg/kg r-Hirudin i.v., gefolgt von 0.1 mg/kg·60 min r-Hirudin - Infusion.
Der Versuch wurde 1 Stunde nach Ende der Infusion bzw. 2 Stunden nach Bolusinjektion der Substanzen beendet. Die Frequenzen der zyklischen Blutströmungsveränderungen in der Stunde vor und in der ersten und zweiten Stunde nach Injektion der Prüfsubstanzen wurden für jede Versuchsgruppe gemittelt. Die mittleren Frequenzen der Zyklen vor und nach Substanzverabreichung wurden statistisch miteinander verglichen (Student-t-Test für verbundene Stichproben). Ein p - Wert von < 0.05 galt als signifikanter Unterschied.

A short description of data set [1]: Systolic and diastolic peripheral arterial blood pressure measured in the same animals. The following applies: Molsidomin 0.1 mg/kg i.v. alone (Gruppe 1) or with r-Hirudin total 0.2 mg/kg i.v. (Gruppe 3). It counts as in vivo, Hausschweinen. The text has this:
Diese Wirkung wurde in folgendem Test ermittelt: Bei männlichen, ca. 4 Monate alten Hausschweinen wurde eine Coronarthrombose nach der Methode von Folts et al (Circulation 1976, 54; 365 - 70) erzeugt. Bei den tief narkotisierten Tieren wurde der Thorax eröffnet; die linke absteigende Coronararterie wurde freipräpariert und mit einem elektromagnetischen Blutströmungsmeßkopf versehen. Distal des Meßkopfes wurde das Coronargefäß durch kurzes (1 s) Quetschen mit einer Gefäßklemme geschädigt. Auf diese Stelle wurde ein Plastikkonstriktor (innerer Durchmesser 1.7 - 2.8 mm, Länge 2 mm) gesetzt, der das Gefäß stenosiert. Diese Versuchsbedingungen führten zum Auftreten regelmäßiger zyklischer Blutströmungsveränderungen (CFV's), verursacht durch die wiederholte Bildung und Embolisierung von Thromben an der geschädigten stenosierten Stelle. Die Thromben wurden durch Bestimmung der Frequenz (Anzahl pro 60 min) der zyklischen Blutströmungsveränderungen quantifiziert. […]

Take `CCOC(=O)[N-]c1cn(N2CCOCC2)n[o+]1` [Molsidomin, N-Ethoxycarbonyl-3-morpholino-sydnonimin]: the “Anzahl thrombotischer Flowzyklen (n/60 min) 1. Stunde nach Substanzinjektion” value in the data set with Coronarthrombose (1st hour after injection, Molsidomin 0.1 mg/kg i.v. bolus, r-Hirudin total 0.2 mg/kg (0.1 mg/kg i.v. bolus + i.v. infusion over 60 min), combination: both, n=6) amounted to 19 ± 3 n/60 min. Besides, in the data set with Coronarthrombose (baseline hour before substance injection, mean of group, n=6), the “Anzahl thrombotischer Flowzyklen (n/60 min) 1. Stunde Vorphase” value came out at 16 ± 2 n/60 min. The “antithrombotische Wirkung der Einzeldosierungen” value in the data set on Coronarthrombose (preliminary experiments (Vorversuche), single doses: Molsidomin 0.1 mg/kg i.v., r-Hirudin total 0.2 mg/kg i.v.) was “gerade nicht antithrombotisch wirkend”. In addition, the “Senkung des diastolischen Blutdrucks” value in data set [1] (decrease not significant) is 10 ± 5 mm Hg. The “Senkung des systolischen Blutdrucks” value in data set [1] (maximal decrease, p < 0.05) is 18 ± 5 mm Hg.

These data come from patent publication EP0499831A2, “Combination of active agents comprising a sydnonimin derivate and a hirudin” (CASSELLA Aktiengesellschaft, priority 1991, dated 1992).
